Measurements reported in patent publication US20100081679A1, “DIAMINOPYRIMIDINES AS FUNGICIDES” (Bayer CropScience AG, priority 2007, published 2010).
Marks after values point to notes of the source that are not given here.

Experiment: logP determination via retention times, calibrated with unbranched alkan-2-ones
Assay type: physicochemical
Details: HPLC on reversed-phase C 18, EEC Directive 79/831 Annex V.A8; method *: 40° C., 0.1% aqueous formic acid and acetonitrile, linear gradient 10% to 95% acetonitrile

logP | Compound
2.25* | FC(F)Oc1ccc(Nc2ncc(Cl)c(NCC3CC3)n2)cc1 [compound 538]
1.44* | CNC(=O)c1ccc(Nc2ncc(Cl)c(NCC3CC3)n2)cc1 [compound 510]
2.51* | CN(C)S(=O)(=O)Oc1cccc(Nc2ncc(Br)c(NCC3CC3)n2)c1 [compound 485]
1.73* | CC(C)C(=O)Nc1ccc(Nc2ncc(Cl)c(NCC3CC3)n2)cc1 [compound 526]
1.53* | COc1cc(Nc2ncc(Cl)c(NCC3CC3)n2)ccc1NC(C)=O [compound 503]
1.17* | O=C1COCCN1c1ccc(Nc2ncc(Cl)c(NC3CC3)n2)cc1 [compound 495]
1.64* | O=C(c1ccc(Nc2ncc(Br)c(NCC3CC3)n2)cc1)N1CCOCC1 [compound 484]
2.15* | COc1cc(Nc2ncc(Br)c(NC3CC3)n2)cc(OC)c1 [compound 563]
1.9* | CCOC(=O)Nc1cccc(Nc2ncc(Cl)c(NCC3CC3)n2)c1 [compound 513]

Same assay, conditions: HPLC on reversed-phase C18, method **: 43° C.; mobile phase 0.1% aqueous phosphoric acid and acetonitrile; linear gradient 10% to 95% acetonitrile

logP | Compound
1.57** | O=S(=O)(Cc1ccc(Nc2ncc(Cl)c(NC3CC3)n2)cc1)N1CCOCC1 [compound 314]
0.48** | Nc1ccc(Nc2ncc(Cl)c(NC3CC3)n2)cc1 [compound 272]

Same assay, conditions: HPLC on reversed-phase C18, method *: 40° C., 0.1% aqueous formic acid and acetonitrile, linear gradient 10% to 95% acetonitrile

logP | Compound
3.69* | CCC(C)Sc1cccc(Nc2ncc(Cl)c(NC3CC3)n2)c1 (stereo not drawn) [compound 665]
1.39* | O=c1ccccn1-c1cccc(Nc2ncc(Cl)c(NC3CC3)n2)c1 [compound 726]
1.94* | O=C(c1cccc(Nc2ncc(Cl)c(NC3CC3)n2)c1)N1CCCCC1 [compound 770]
2.18* | CSc1ccc(Nc2ncc(Cl)c(NCC3CC3)n2)cc1 [compound 674]
1.23* | O=C(O)Cc1cccc(Nc2ncc(Cl)c(NC3CC3)n2)c1 [compound 768]
1.29* | CN1CC(=O)N(c2ccc(Nc3ncc(Cl)c(NC4CC4)n3)cc2)C1=O [Example 107]
3.92* | CCCOc1cccc(Nc2ncc(C(F)(F)F)c(NC3CC3)n2)c1 [compound 699]
1.48* | O=C1CCCN1c1cccc(Nc2ncc(C(F)F)c(NCC3CC3)n2)c1 [compound 774]
2.68* | CC(=O)CCc1cccc(Nc2ncc(C(F)(F)F)c(NC3CC3)n2)c1 [compound 959]
0.85* | N#Cc1ccccc1Nc1ncc(Cl)c(NC2CC2)n1 [compound 881]
2.99* | FC(F)(F)c1cnc(Nc2ccccc2)nc1NCC1CC1 [compound 922]
1.07* | Brc1cnc(Nc2ccc(OCCN3CCCCC3)cc2)nc1NC1CC1 [compound 117]
1.83* | NS(=O)(=O)c1cc(Nc2ncc(Cl)c(NCC3CC3)n2)ccc1Cl [compound 693]
1.39* | Oc1cccc(Nc2ncc(Br)c(NC3CC3)n2)c1 [compound 765]
1.63* | COc1ccc(Nc2ncc(Cl)c(NCC3CC3)n2)cc1OC [compound 686]
3.94* | Clc1cnc(Nc2ccccc2Sc2ccccc2)nc1NC1CC1 [compound 884]
2.21* | CCOc1cccc(Nc2ncc(Cl)c(NCC3CC3)n2)c1 [compound 692]
2.13* | CCc1ccc(Nc2ncc(Cl)c(NC3CC3)n2)cc1 [compound 951]
1.21* | Cc1cc(O)ccc1Nc1ncc(Br)c(NC2CC2)n1 [compound 112]
2.7* | Clc1cnc(Nc2ccccc2Br)nc1NC1CC1 [compound 871]
2.86* | O=C(c1ccc(Nc2ncc(C(F)(F)F)c(NC3CC3)n2)cc1)N1CCCCC1 [compound 725]

Same assay, conditions: HPLC on reversed-phase C18, method *: 40° C.; mobile phase 0.1% aqueous formic acid and acetonitrile; linear gradient 10% to 95% acetonitrile

logP | Compound
1.99* | CC(C)OC(=O)Nc1cccc(Nc2ncc(Cl)c(NC3CC3)n2)c1 [compound 302]
1.63* | COC(=O)N(C)c1ccc(Nc2ncc(Cl)c(NC3CC3)n2)cc1 [compound 339]
1.59* | Cc1cccc(C)c1Nc1ncc(Cl)c(NC2CC2)n1 [compound 273]
2.33* | CN(C)S(=O)(=O)c1ccc(Nc2ncc(Br)c(NC3CC3)n2)cc1 [compound 346]
2.14* | CC(C)(C)C(=O)Nc1cccc(Nc2ncc(Cl)c(NCC3CC3)n2)c1 [compound 312]
2.59* | Fc1ccc(Nc2ncc(Cl)c(NC3CC3)n2)cc1F [compound 321]
3.42* | CC1(c2ccc(Nc3ncc(Cl)c(NC4CC4)n3)cc2)CCCC1 [compound 310]
1.8* | COc1cccc(Nc2ncc(Cl)c(NC3CC3)n2)c1 [compound 283]
0.45*; | Nc1ccc(Nc2ncc(Cl)c(NC3CC3)n2)cc1 [compound 272]
2.58* | FC(F)(F)c1ccccc1Nc1ncc(Cl)c(NC2CC2)n1 [compound 276]
3.9* | FC(F)(F)Oc1ccc(Nc2ncc(Cl)c(NC3CC3)n2)cc1Cl [compound 296]

Same assay, conditions: HPLC on reversed-phase C18 column (EEC Directive 79/831 Annex V.A8); method *: 40° C.; 0.1% aqueous formic acid and acetonitrile; linear gradient 10% to 95% acetonitrile

logP | Compound
2.77* | CC(=O)c1cccc(Nc2ncc(C(F)(F)F)c(NCC3CC3)n2)c1 [compound 211]
1.9* | COC(=O)c1cccc(Nc2ncc(Cl)c(NC3CC3)n2)c1 [compound 196]

Same assay, conditions: HPLC reversed-phase C 18, EEC Directive 79/831 Annex V.A8; method **: 43° C., 0.1% aqueous phosphoric acid and acetonitrile, linear gradient 10% to 95% acetonitrile

logP | Compound
1.47** | Cc1nc(Nc2cccc(N3CCCC3=O)c2)nc(NC2CC2)c1Cl [compound 838]

Same assay, conditions: HPLC reversed-phase C 18, EEC Directive 79/831 Annex V.A8; method *: 40° C., 0.1% aqueous formic acid and acetonitrile, linear gradient 10% to 95% acetonitrile

logP | Compound
1.96* | COC(C)c1cccc(Nc2ncc(Cl)c(NC3CC3)n2)c1 (stereo not drawn) [compound 806]
1.94* | OC(c1cccc(Nc2ncc(Br)c(NC3CC3)n2)c1)C(F)(F)F (stereo not drawn) [compound 798]
1.82* | COc1cc(CC#N)ccc1Nc1ncc(Cl)c(NC2CC2)n1 [compound 817]
2.71* | CC(C)c1cccc(Nc2ncc(Cl)c(NCC3CC3)n2)c1 [compound 777]
1.86* | COCc1cccc(Nc2ncc(I)c(NC3CC3)n2)c1 [compound 847]
1.33* | COCC(=O)Nc1cccc(Nc2ncc(Cl)c(NC3CC3)n2)c1 [compound 793]
3.14* | CC(C)(C)c1cccc(Nc2ncc(Br)c(NC3CC3)n2)c1 [compound 779]
2.18* | Brc1cnc(Nc2ccccc2)nc1NCCC1CC1 [compound 809]
2.92* | CC(C)(C)c1ccc(Nc2ncc(Cl)c(NC3CC3)n2)cc1 [compound 829]
2.74* | COC(c1cccc(Nc2ncc(Cl)c(NCC3CC3)n2)c1)C(F)(F)F (stereo not drawn) [compound 792]

Same assay, conditions: method **: HPLC reversed-phase C 18, 43° C., 0.1% aqueous phosphoric acid and acetonitrile, linear gradient 10% to 95% acetonitrile

logP | Compound
2.14** | Cc1ccc(Nc2ncc(Cl)c(NC3CC3)n2)cc1S(=O)(=O)N(C)C [Example 47]
2.6** | CCCCNS(=O)(=O)c1ccc(Nc2ncc(Cl)c(NC3CC3)n2)cc1 [Example 22]
2.62** | CC(C)c1ccc(Nc2ncc(Cl)c(NCC3CC3)n2)cc1 [Example 54]

Same assay, conditions: method **: HPLC reversed-phase C 18, temperature 43° C.; mobile phase 0.1% aqueous phosphoric acid and acetonitrile; linear gradient 10% to 95% acetonitrile

logP | Compound
2.8** | CC(=O)c1ccc(Nc2ncc(C(F)(F)F)c(NC3CC3)n2)cc1 [compound 656]

Same assay, conditions: method **: HPLC, reversed-phase C 18, 43° C., mobile phase 0.1% aqueous phosphoric acid and acetonitrile, linear gradient from 10% to 95% acetonitrile

logP | Compound
2.88** | COCCc1cccc(Nc2ncc(C(F)(F)F)c(NC3CC3)n2)c1 [compound 1039]

Same assay, conditions: method *: HPLC reversed-phase C18, 40° C., 0.1% aqueous formic acid and acetonitrile, linear gradient 10% to 95% acetonitrile

logP | Compound
1.99* | CC(=O)c1ccc(Nc2ncc(Cl)c(NC3CC3)n2)cc1 [compound 44]
1.36* | O=C1CCCN1Cc1ccc(Nc2ncc(Cl)c(NC3CC3)n2)cc1 [compound 432]
1.73* | CCN(C(C)=O)c1ccc(Nc2ncc(Br)c(NC3CC3)n2)cc1 [compound 380]
1.92* | CC(=O)c1cc(Nc2ncc(Br)c(NCC3CC3)n2)ccc1O [compound 463]
1.22* | OCc1cccc(Nc2ncc(Cl)c(NC3CC3)n2)c1 [Example 82]
1.8* | Cc1cnc(Nc2cccc(Cl)c2)nc1NC1CC1 [compound 57]
3.62* | O=C(c1ccc(Nc2ncc(Cl)c(NC3CC3)n2)cc1)C(F)(F)F [Example 73]
1.83* | Brc1cnc(Nc2ccc3c(c2)OCO3)nc1NCC1CC1 [compound 418]

Compound | logP
CNC(=O)Oc1cccc(Nc2ncc(Br)c(NCC3CC3)n2)c1 [compound 429] | 1.68*

Same assay, conditions: method *: HPLC reversed-phase C 18, temperature 40° C.; mobile phase 0.1% aqueous formic acid and acetonitrile; linear gradient 10% to 95% acetonitrile

logP | Compound
3.33* | CC(C)(C)C(=O)Cc1ccc(Nc2ncc(C(F)(F)F)c(NC3CC3)n2)cc1 [compound 655]
1.92* | CC(C)(C)C(=O)Cc1ccc(Nc2ncc(F)c(NC3CC3)n2)cc1 [compound 589]
1.51* | COc1cccc(Nc2ncc(F)c(NC3CC3)n2)c1 [compound 573]
2.36* | CS(=O)(=O)c1ccc(Nc2ncc(C(F)(F)F)c(NC3CC3)n2)cc1 [compound 644]
1.49* | O=C(NC1CC1)c1cccc(Nc2ncc(Br)c(NC3CC3)n2)c1 [compound 628]
2.73* | COc1cccc(Nc2ncc(C(F)(F)F)c(NC3CC3)n2)c1 [compound 640]
2.77* | O=S(=O)(c1cccc(Nc2ncc(C(F)(F)F)c(NC3CC3)n2)c1)N1CCCCC1 [compound 654]
2.7*; | CC(=O)c1ccc(Nc2ncc(C(F)(F)F)c(NC3CC3)n2)cc1 [compound 656]
1.45* | CC(=O)c1cccc(Nc2ncc(F)c(NC3CC3)n2)c1 [compound 591]

Same assay, conditions: method *: HPLC, reversed-phase C 18, 40° C., mobile phase 0.1% aqueous formic acid and acetonitrile, linear gradient from 10% to 95% acetonitrile

logP | Compound
1.25* | OCc1cc(Nc2ncc(Cl)c(NC3CC3)n2)ccc1F [compound 1047]

Same assay, conditions: pH 2.3; read-out: logP (pH2.3)

chromatographic logP | Compound
1.28 | Cc1cnc(Cl)nc1NC1CC1 [2-chloro-N-cyclopropyl-5-methylpyrimidine-4-amine]
